In publication PMC8752738, “A propolis-derived small molecule ameliorates metabolic syndrome in obese mice by targeting the CREB/CRTC2 transcriptional complex” (Nature Communications, 2022):
Values joined by “and” are separate entries in the source; they are usually repeats but may differ in a detail not shown here. Equal entries are not always repeated.

Key:
HIS-CREB protein = molecular target: T1, HIS-CREB protein (Homo sapiens, UniProt P16220); test: Surface plasmon resonance, immobilized HIS-CREB; type: binding; conditions: dose-dependent
T1 construct: made in house
T1 sequence (P16220 whole entry): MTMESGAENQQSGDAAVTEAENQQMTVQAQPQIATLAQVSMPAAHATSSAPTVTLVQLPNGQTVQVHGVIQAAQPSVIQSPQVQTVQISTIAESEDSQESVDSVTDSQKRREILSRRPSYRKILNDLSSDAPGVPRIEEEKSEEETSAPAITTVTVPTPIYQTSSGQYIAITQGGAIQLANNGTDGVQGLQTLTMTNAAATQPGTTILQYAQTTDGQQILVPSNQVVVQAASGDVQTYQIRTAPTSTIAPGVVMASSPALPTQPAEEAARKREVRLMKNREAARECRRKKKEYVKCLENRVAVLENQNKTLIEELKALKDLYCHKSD
Description: BIACORE 100 (GE Healthcare) was employed to perform surface plasmon resonance. Briefly, purified HIS-CREB proteins were captured in the test channel of an NTA-chip (GE, Healthcare) in HEPES buffer (10 mM HEPES, 150 mM NaCl, 3 mM EDTA, pH 7.5). APC solutions with different concentrations were flowed through immobilized HIS-CREB proteins for indicated times, which caused equilibrium response values (RU) to change appropriately. The detected RU values were plotted by time using GraphPad Prism software.

G6pc promoter (G6p-Luc) = test: G6p-Luc reporter in primary hepatocytes; type: cell-based, mouse; conditions: APC 10 μM, 8-h
LXRα = test: Immunoblot of LXRα in insulin-stimulated primary hepatocytes; type: cell-based, mouse; conditions: for relative LXRa protein: individual replicates, Supp. Fig.6 b; for relative LXRa protein, mean: N=3
Description: 3 Supplementary Figure 6. APC inhibited transcription induced by half-CRE in the promoters of
5 a) Immunoblot of LXRa protein levels in primary hepatocytes stimulated with insulin (100 nM) for
6 indicated times (0–18 h). One presentative result from three experiments is shown here. Relative
7 LXRa protein level normalized to GAPDH shown as a bar graph (b). Data are represented as
8 mean ± SEM (n=3 per treatment). *, p < 0.05; **, p < 0.01; p values were determined by two-way […]
(1 picture or pasted object on this page, not shown here)

[1] = molecular target: T2, GST-CREB / HIS-CRTC2-S171A interaction (Homo sapiens, UniProt P16220); test: In vitro pull-down with purified GST-CREB and HIS-CRTC2-S171A; type: biochemical; conditions: for Relative HIS/GST in GST-pull down fraction: Fig 2d replicates
T2 construct: made in house; host or cells: E. coli
T2 sequence (P16220 whole entry, stated change not applied): as the sequence (P16220 whole entry) above
Excerpt: To further confirm whether APC disrupts the protein association between CREB and CRTC2, we performed GST-pull-down assays in which GST-CREB beads were used to immunoprecipitated FLAG-tagged CRTC2 proteins that were expressed in HEK293T cells. As expected, APC attenuated the amounts of FLAG-CRTC2 proteins recovered by GST-CREB beads from HEK293T cell lysates (Fig. 2a). […] In contrast, APC had little effect on the association of GST-CREB with HA-P300 (Supplementary Fig. 2a), as well as the interaction between endogenous CRTC2 and CBP proteins (Fig. 2c). Moreover, the interactions of CREB and the isoforms CRTC1 and CRTC3 were also attenuated by APC in overexpression HEK293T cells (Supplementary Fig. 2b, c).
Fig. 2 APC blocks interaction between CREB and CRTC2. a Analysis of GST-CREB immunoprecipitated with overexpressed FLAG-CRTC2 from the lysates of HEK293T cells. APC (10 μM) was added to the culture media for 1 h and the following IP mixture. The relative gray density of FLAG in GST-pull-down fraction is shown as a bar graph (bottom). One of three independent experiments is presented (top, n = 3). Data are represented as mean ± SEM); P values were determined by one-way ANOVA followed Dunnett’s multiple comparisons test. b Analysis of HA-CRTC2 immunoprecipitated with endogenous CREB from primary hepatocyte lysates. APC (10 μM) was added to the culture media for 1-h before 30-min of stimulation with glucagon (Gluc, 100 nM) and the following IP mixture as indicated. Top panel presents one of three independent experiments, and the relative gray density of HA in CREB-IP-faction is shown as a bar graph (bottom, n = 3). Data are represented as mean ± SEM; P values were determined by one-way ANOVA followed Dunnett’s multiple comparisons test. c Immunoblotting analysis of endogenous CREB, CRTC2, and CBP interaction by an anti-CRTC2 antibody from the lysate of primary hepatocytes. APC (10 μM) was added to the culture media for 1-h before 30-min stimulation with glucagon. Related CREB and CBP normalized by CRTC2, respectively, in CRTC2-IP fractions. The top panel presents one of three independent experiments, and the relative gray density of CREB and CBP normalized to CRTC2 in the CRTC2-IP-faction is shown as a bar graph (bottom, n = 3). Data are represented as mean ± SEM; P values were determined by two-way ANOVA followed Bonferroni’s multiple comparisons test. d Immunoblotting analysis of protein GST-CREB recovered HIS-CRTC2-S171A proteins purified from E. coli. The addition of APC (5, 10, or 50 μM) in pull-down mixtures is indicated. […] Data are represented as mean ± SEM; P values were determined by one-way ANOVA followed Dunnett’s multiple comparisons test (compared with APC = 0).

[2] = molecular target: T3, endogenous CRTC2 / CBP interaction (Mus musculus, UniProt P45481+Q3U182); test: Co-immunoprecipitation by anti-CRTC2 antibody, primary hepatocytes: CBP; type: cell-based
T3 construct: endogenous in cells; host or cells: mouse primary hepatocytes
T3 sequence (Q3U182 2-692 limits assumed): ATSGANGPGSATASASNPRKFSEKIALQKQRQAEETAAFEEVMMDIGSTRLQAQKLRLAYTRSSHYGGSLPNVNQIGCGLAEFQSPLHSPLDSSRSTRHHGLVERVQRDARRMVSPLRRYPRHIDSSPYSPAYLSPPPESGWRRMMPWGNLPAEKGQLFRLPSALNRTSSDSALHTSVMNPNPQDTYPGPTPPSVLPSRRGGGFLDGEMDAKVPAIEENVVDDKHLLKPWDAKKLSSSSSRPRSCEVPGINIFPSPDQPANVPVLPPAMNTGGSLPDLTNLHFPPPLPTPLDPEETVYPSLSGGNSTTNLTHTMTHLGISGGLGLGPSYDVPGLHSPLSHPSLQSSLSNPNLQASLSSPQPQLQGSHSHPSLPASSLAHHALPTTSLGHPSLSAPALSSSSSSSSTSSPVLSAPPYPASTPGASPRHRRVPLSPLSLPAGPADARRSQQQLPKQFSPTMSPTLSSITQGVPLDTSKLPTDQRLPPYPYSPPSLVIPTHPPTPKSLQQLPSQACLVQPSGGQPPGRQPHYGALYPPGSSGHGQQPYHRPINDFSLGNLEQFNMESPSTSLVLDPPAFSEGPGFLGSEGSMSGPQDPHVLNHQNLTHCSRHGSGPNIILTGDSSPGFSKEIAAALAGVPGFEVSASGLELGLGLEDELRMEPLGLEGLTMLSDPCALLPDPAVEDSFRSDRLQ
T3 sequence (P45481 2-2441 limits assumed): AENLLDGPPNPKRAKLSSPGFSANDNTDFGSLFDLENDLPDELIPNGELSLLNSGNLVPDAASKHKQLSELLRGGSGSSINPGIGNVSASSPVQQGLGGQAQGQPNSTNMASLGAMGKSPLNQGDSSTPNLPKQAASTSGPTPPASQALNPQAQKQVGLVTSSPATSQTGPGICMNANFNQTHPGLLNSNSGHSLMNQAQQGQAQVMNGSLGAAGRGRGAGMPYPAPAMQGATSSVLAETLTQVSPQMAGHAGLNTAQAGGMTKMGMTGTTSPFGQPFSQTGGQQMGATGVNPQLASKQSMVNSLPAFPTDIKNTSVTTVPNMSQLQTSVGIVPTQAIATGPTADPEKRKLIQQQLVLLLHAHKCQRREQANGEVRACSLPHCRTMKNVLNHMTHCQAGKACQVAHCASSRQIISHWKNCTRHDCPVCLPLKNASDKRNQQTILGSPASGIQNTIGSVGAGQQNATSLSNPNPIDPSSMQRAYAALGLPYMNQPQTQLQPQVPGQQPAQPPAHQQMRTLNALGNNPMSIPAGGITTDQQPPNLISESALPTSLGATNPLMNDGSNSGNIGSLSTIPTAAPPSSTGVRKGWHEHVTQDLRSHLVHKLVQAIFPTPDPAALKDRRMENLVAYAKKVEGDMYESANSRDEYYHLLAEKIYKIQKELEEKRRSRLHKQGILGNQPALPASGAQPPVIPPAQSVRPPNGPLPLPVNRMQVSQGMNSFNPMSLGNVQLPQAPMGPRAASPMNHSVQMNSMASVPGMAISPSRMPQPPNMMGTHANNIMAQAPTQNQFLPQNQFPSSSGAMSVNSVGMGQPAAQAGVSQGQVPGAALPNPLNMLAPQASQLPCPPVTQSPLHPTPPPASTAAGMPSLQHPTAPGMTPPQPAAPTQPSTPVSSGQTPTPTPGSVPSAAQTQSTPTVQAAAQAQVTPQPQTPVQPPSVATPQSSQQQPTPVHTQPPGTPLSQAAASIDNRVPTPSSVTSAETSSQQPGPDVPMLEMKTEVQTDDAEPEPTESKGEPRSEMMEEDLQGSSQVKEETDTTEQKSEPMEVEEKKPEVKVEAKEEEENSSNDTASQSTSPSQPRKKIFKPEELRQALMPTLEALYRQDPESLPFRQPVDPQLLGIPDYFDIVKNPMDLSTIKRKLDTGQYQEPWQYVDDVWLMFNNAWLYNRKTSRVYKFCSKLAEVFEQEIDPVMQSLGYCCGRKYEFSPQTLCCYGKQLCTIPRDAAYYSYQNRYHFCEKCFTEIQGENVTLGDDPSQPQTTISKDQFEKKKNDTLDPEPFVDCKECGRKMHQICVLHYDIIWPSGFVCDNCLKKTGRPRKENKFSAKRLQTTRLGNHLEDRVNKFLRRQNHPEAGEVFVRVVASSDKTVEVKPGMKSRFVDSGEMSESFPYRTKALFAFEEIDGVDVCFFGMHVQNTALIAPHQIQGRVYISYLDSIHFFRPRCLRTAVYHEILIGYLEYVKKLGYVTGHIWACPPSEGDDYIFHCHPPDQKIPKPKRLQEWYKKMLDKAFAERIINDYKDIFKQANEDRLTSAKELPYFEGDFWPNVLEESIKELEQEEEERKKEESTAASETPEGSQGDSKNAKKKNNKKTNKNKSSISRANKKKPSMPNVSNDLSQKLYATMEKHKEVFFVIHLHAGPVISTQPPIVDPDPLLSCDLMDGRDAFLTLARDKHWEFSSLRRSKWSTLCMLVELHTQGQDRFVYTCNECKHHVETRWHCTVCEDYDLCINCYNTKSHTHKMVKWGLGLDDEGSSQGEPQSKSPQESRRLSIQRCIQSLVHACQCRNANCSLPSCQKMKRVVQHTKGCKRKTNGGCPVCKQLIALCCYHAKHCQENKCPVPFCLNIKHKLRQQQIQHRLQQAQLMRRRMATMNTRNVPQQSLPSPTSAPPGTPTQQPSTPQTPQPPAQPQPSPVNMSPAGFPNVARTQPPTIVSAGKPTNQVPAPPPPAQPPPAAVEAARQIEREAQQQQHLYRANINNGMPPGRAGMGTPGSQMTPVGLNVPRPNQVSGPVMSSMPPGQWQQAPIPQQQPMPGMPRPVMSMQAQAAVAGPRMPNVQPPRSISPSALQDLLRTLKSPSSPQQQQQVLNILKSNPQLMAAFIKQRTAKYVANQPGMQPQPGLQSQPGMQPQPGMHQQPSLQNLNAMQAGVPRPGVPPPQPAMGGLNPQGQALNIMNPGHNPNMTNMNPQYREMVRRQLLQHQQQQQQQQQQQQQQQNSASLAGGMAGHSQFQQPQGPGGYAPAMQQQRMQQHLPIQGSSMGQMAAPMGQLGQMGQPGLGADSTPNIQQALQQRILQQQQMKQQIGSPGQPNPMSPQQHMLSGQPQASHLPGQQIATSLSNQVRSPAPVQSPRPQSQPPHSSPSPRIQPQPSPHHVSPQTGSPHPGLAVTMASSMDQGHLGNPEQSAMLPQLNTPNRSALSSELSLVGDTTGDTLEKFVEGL
Description: Fig. 2 APC blocks interaction between CREB and CRTC2. a Analysis of GST-CREB immunoprecipitated with overexpressed FLAG-CRTC2 from the lysates of HEK293T cells. APC (10 μM) was added to the culture media for 1 h and the following IP mixture. The relative gray density of FLAG in GST-pull-down fraction is shown as a bar graph (bottom). One of three independent experiments is presented (top, n = 3). Data are represented as mean ± SEM); P values were determined by one-way ANOVA followed Dunnett’s multiple comparisons test. b Analysis of HA-CRTC2 immunoprecipitated with endogenous CREB from primary hepatocyte lysates. […] Data are represented as mean ± SEM; P values were determined by one-way ANOVA followed Dunnett’s multiple comparisons test. c Immunoblotting analysis of endogenous CREB, CRTC2, and CBP interaction by an anti-CRTC2 antibody from the lysate of primary hepatocytes. […] Data are represented as mean ± SEM; P values were determined by two-way ANOVA followed Bonferroni’s multiple comparisons test. d Immunoblotting analysis of protein GST-CREB recovered HIS-CRTC2-S171A proteins purified from E. coli. […] Data are represented as mean ± SEM; P values were determined by one-way ANOVA followed Dunnett’s multiple comparisons test (compared with APC = 0). […]

**Q.** Which results are given for CC(C)=CCc1cc(C=CC(=O)O)cc(CC=C(C)C)c1O [APC, 3,5-diprenyl-4-hydroxycinnamic acid]?
**A.** binding to immobilized HIS-CREB (SPR) (HIS-CREB protein): directly bound; CRTC2-S171A induced G6p-luciferase activity (G6pc promoter (G6p-Luc)): reduced; relative LXRa protein (LXRα; Insulin 0h): 101.09 and 100.00 and 97.00; relative LXRa protein, mean (LXRα; Insulin 0h): 99.36; relative LXRa protein (LXRα; Insulin 3h): 65.50 and 69.00 and 75.00; relative LXRa protein, mean (LXRα; Insulin 3h): 69.83; relative LXRa protein, Mean Diff. 3h vs. 0h (LXRα; Insulin 3h minus 0h, within APC group): -29.53; relative LXRa protein (LXRα; Insulin 18h): 33.42 and 31.00 and 29.00; relative LXRa protein, mean (LXRα; Insulin 18h): 31.14; relative LXRa protein, Mean Diff. 18h vs. 0h (LXRα; Insulin 18h minus 0h, within APC group): -68.22; LXRα protein levels (LXRα; primary hepatocytes, insulin treatment 18-h): significantly reduced; Relative HIS/GST in GST-pull down fraction ([1]; APC 5 uM): 0.8055 and 0.8618 and 0.7881; Relative HIS/GST in GST-pull down fraction ([1]; APC 10 uM): 0.4842 and 0.3120 and 0.3223; Relative HIS/GST in GST-pull down fraction ([1]; APC 50 uM): 0.1707 and 0.1125 and 0.1021; HIS-CRTC2-S171A recovered by GST-CREB ([1]; purified proteins, APC 5, 10, 50 μM, dose-dependent): significantly diminished; CBP/CRTC2 band gray signal, CRTC2-COIP fraction ([2]; Fig 2c replicates, APC+ (10 μM)): 0.6163 and 0.6152 and 0.6031; interaction between endogenous CRTC2 and CBP ([2]; primary hepatocytes, APC 10 μM): little effect
